Measurements: ChEMBL document CHEMBL1201862, “PubChem BioAssay data set” (2004)
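Step 1: Grow cells in 96-well plates. Step 2: Expose to compound for 48 hours at 5 concentrations. Step 3: Interpolate endpoints linearly; if unreached, use highest concentration. Abbreviation: GI50, concentration required for 50% inhibition of growth.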 Active and inactive are the calls of the source. Cut-off read from the data, not from the text of the source: active = GI50 up to about 1.1 µM and inactive = higher.

Legend:
Experiment in all cases: NCI anticancer screen, dose series, 48 h
[1] = test system: LOX IMVI
[2] = test system: CAKI-1
[3] = test system: HOP-92
[4] = test system: EKVX
[5] = test system: SK-MEL-5
[6] = test system: TK-10
[7] = test system: HOP-62
[8] = test system: SF-268
[9] = test system: 786-0
[10] = test system: SN12C
[11] = test system: HCT-116
[12] = test system: OVCAR-3
[13] = test system: K562
[14] = test system: PC-3
[15] = test system: SNB-75
[16] = test system: RXF 393
[17] = test system: OVCAR-5
[18] = test system: SF-295
[19] = test system: Malme-3M
[20] = test system: SR
[21] = test system: RPMI-8226
[22] = test system: Hs-578T
[23] = test system: MCF7
[24] = test system: UO-31
[25] = test system: A498
[26] = test system: OVCAR-4
[27] = test system: MOLT-4
[28] = test system: IGROV-1
[29] = test system: SNB-19
[30] = test system: ACHN
[31] = test system: UACC-62
[32] = test system: HL-60
[33] = test system: U-251
[34] = test system: SK-OV-3
[35] = test system: HCT-15
[36] = test system: NCI-H23
[37] = test system: MDA-N
[38] = test system: SK-MEL-28
[39] = test system: DU-145
[40] = test system: M14
[41] = test system: MDA-MB-435
[42] = test system: OVCAR-8
[43] = test system: UACC-257
[44] = test system: SF-539
[45] = test system: A549
[46] = test system: T47D
[47] = test system: CCRF-CEM
[48] = test system: COLO 205
[49] = test system: NCI-H522
[50] = test system: BT-549
[51] = test system: NCI/ADR-RES
[52] = test system: SW-620
[53] = test system: HT-29
[54] = test system: NCI-H460
[55] = test system: MDA-MB-231
[56] = test system: NCI-H226
[57] = test system: KM12
[58] = test system: HCC 2998

O=C(NCCCCCCCCNC(=O)c1cc(-c2ccccc2)nc2ccccc12)c1cc(-c2ccccc2)nc2ccccc12
GI50 [1]: > 100 µM (inactive)
GI50 [2]: > 100 µM (inactive)
GI50 [3]: > 100 µM (inactive)
GI50 [4]: > 100 µM (inactive)
GI50 [5]: > 100 µM (inactive)
GI50 [6]: > 100 µM (inactive)
GI50 [7]: 38.8 µM (inactive)
GI50 [8]: 68.9 µM (inactive)
GI50 [9]: 41.7 µM (inactive)
GI50 [10]: > 100 µM (inactive)
GI50 [11]: > 100 µM (inactive)
GI50 [12]: > 100 µM (inactive)
GI50 [13]: > 100 µM (inactive)
GI50 [14]: > 100 µM (inactive)
GI50 [15]: 38.6 µM (inactive)
GI50 [16]: 2.48 µM (inactive)
GI50 [17]: > 100 µM (inactive)
GI50 [18]: > 100 µM (inactive)
GI50 [19]: > 100 µM (inactive)
GI50 [20]: > 100 µM (inactive)
GI50 [21]: > 100 µM (inactive)
GI50 [22]: 28.7 µM (inactive)
GI50 [23]: > 100 µM (inactive)
GI50 [24]: > 100 µM (inactive)
GI50 [25]: > 100 µM (inactive)
GI50 [26]: > 100 µM (inactive)
GI50 [27]: > 100 µM (inactive)
GI50 [28]: > 100 µM (inactive)
GI50 [29]: 64.9 µM (inactive)
GI50 [30]: > 100 µM (inactive)
GI50 [31]: > 100 µM (inactive)
GI50 [32]: > 100 µM (inactive)
GI50 [33]: 35.3 µM (inactive)
GI50 [34]: > 100 µM (inactive)
GI50 [35]: > 100 µM
GI50 [36]: > 100 µM (inactive)
GI50 [37]: > 100 µM (inactive)
GI50 [38]: > 100 µM (inactive)
GI50 [39]: > 100 µM (inactive)
GI50 [40]: > 100 µM (inactive)
GI50 [41]: > 100 µM (inactive)
GI50 [42]: 94 µM (inactive)
GI50 [43]: > 100 µM (inactive)
GI50 [44]: 71.1 µM (inactive)
GI50 [45]: > 100 µM (inactive)
GI50 [46]: > 100 µM (inactive)
GI50 [47]: > 100 µM (inactive)
GI50 [48]: > 100 µM (inactive)
GI50 [49]: 87.7 µM (inactive)
GI50 [50]: 57.7 µM (inactive)
GI50 [51]: > 100 µM (inactive)
GI50 [52]: > 100 µM (inactive)
GI50 [53]: > 100 µM (inactive)
GI50 [54]: > 100 µM (inactive)
GI50 [55]: > 100 µM (inactive)
GI50 [56]: > 100 µM (inactive)

CSC(=S)CC(O)[C@@H]1CC2c3ccccc3C1c1ccccc12 (stereo partly drawn)
GI50 [1]: 6.35 µM (inactive)
GI50 [3]: 17.4 µM (inactive)
GI50 [57]: 11.3 µM (inactive)
GI50 [5]: 13.4 µM (inactive)
GI50 [6]: 15.2 µM (inactive)
GI50 [7]: 15.7 µM (inactive)
GI50 [8]: 15.4 µM (inactive)
GI50 [9]: 18 µM (inactive)
GI50 [10]: 18.7 µM (inactive)
GI50 [11]: 8.11 µM (inactive)
GI50 [12]: 8.51 µM (inactive)
GI50 [13]: 4.56 µM (inactive)
GI50 [14]: 5.83 µM (inactive)
GI50 [15]: > 10 µM (inactive)
GI50 [16]: 2.19 µM (inactive)
GI50 [17]: 16.7 µM (inactive)
GI50 [18]: 16.6 µM (inactive)
GI50 [19]: 19.7 µM (inactive)
GI50 [20]: 3.46 µM (inactive)
GI50 [21]: 3.11 µM (inactive)
GI50 [22]: 15 µM (inactive)
GI50 [23]: 13.9 µM (inactive)
GI50 [24]: 11.7 µM (inactive)
GI50 [25]: 20.7 µM (inactive)
GI50 [26]: 12.1 µM (inactive)
GI50 [27]: 1.49 µM (inactive)
GI50 [28]: 11.8 µM (inactive)
GI50 [29]: 11.2 µM (inactive)
GI50 [30]: 13.6 µM (inactive)
GI50 [31]: 12.1 µM (inactive)
GI50 [32]: 2.54 µM (inactive)
GI50 [33]: 3.55 µM (inactive)
GI50 [34]: 15.3 µM (inactive)
GI50 [35]: 9.73 µM
GI50 [36]: 7.11 µM (inactive)
GI50 [37]: 11.7 µM (inactive)
GI50 [38]: 21.7 µM (inactive)
GI50 [39]: 15.2 µM (inactive)
GI50 [40]: 12.7 µM (inactive)
GI50 [41]: 11.3 µM (inactive)
GI50 [42]: 14.9 µM (inactive)
GI50 [44]: 17.9 µM (inactive)
GI50 [45]: 17.1 µM (inactive)
GI50 [46]: 5.5 µM (inactive)
GI50 [47]: 1.95 µM (inactive)
GI50 [48]: 18.1 µM (inactive)
GI50 [49]: 2.82 µM (inactive)
GI50 [50]: 13.2 µM (inactive)
GI50 [51]: 12.6 µM (inactive)
GI50 [52]: 4.81 µM (inactive)
GI50 [58]: 12.8 µM (inactive)
GI50 [53]: 4.33 µM (inactive)
GI50 [54]: 14.6 µM (inactive)
GI50 [55]: 23.8 µM (inactive)
GI50 [56]: 9.06 µM (inactive)

COC1CC(C)(NC(=O)C(F)(F)F)C2OC(c3ccccc3)OCC2O1 (stereo not drawn)
GI50 [1]: > 100 µM (inactive)
GI50 [2]: > 100 µM (inactive)
GI50 [3]: > 100 µM (inactive)
GI50 [4]: > 100 µM (inactive)
GI50 [57]: > 100 µM (inactive)
GI50 [5]: > 100 µM (inactive)
GI50 [6]: > 100 µM (inactive)
GI50 [7]: > 100 µM (inactive)
GI50 [8]: > 100 µM (inactive)
GI50 [9]: > 100 µM (inactive)
GI50 [10]: > 100 µM (inactive)
GI50 [11]: > 100 µM (inactive)
GI50 [12]: > 100 µM (inactive)
GI50 [13]: > 100 µM (inactive)
GI50 [14]: > 100 µM (inactive)
GI50 [15]: > 100 µM (inactive)
GI50 [16]: > 100 µM (inactive)
GI50 [17]: > 100 µM (inactive)
GI50 [18]: > 100 µM (inactive)
GI50 [19]: > 100 µM (inactive)
GI50 [20]: > 100 µM (inactive)
GI50 [21]: > 100 µM (inactive)
GI50 [22]: > 100 µM (inactive)
GI50 [23]: > 100 µM (inactive)
GI50 [24]: > 100 µM (inactive)
GI50 [25]: > 100 µM (inactive)
GI50 [26]: > 100 µM (inactive)
GI50 [27]: 47.3 µM (inactive)
GI50 [28]: > 100 µM (inactive)
GI50 [29]: > 100 µM (inactive)
GI50 [30]: > 100 µM (inactive)
GI50 [31]: > 100 µM (inactive)
GI50 [32]: > 100 µM (inactive)
GI50 [33]: > 100 µM (inactive)
GI50 [34]: > 100 µM (inactive)
GI50 [35]: > 100 µM
GI50 [36]: > 100 µM (inactive)
GI50 [37]: > 100 µM (inactive)
GI50 [38]: > 100 µM (inactive)
GI50 [39]: > 100 µM (inactive)
GI50 [40]: > 100 µM (inactive)
GI50 [41]: > 100 µM (inactive)
GI50 [42]: > 100 µM (inactive)
GI50 [43]: > 100 µM (inactive)
GI50 [44]: > 100 µM (inactive)
GI50 [45]: > 100 µM (inactive)
GI50 [46]: > 100 µM (inactive)
GI50 [47]: > 100 µM (inactive)
GI50 [48]: > 100 µM (inactive)
GI50 [49]: > 100 µM (inactive)
GI50 [50]: > 100 µM (inactive)
GI50 [51]: > 100 µM (inactive)
GI50 [52]: > 100 µM (inactive)
GI50 [53]: 47 µM (inactive)
GI50 [54]: > 100 µM (inactive)
GI50 [55]: > 100 µM (inactive)
GI50 [56]: > 100 µM (inactive)
